Results from US6117859A, “Method of relieving chronic inflammation by using 5-alkylsulfonylsalicylanilides” (The Research Foundation of State University of New York, priority 1999, dated 2000).

Key:
[1] = Single dose oral tolerance in rats; assay type: in vivo, rat (male weaning Sprague-Dawley); settings: single dose 2.5 or 0.75 g/kg in 5% CMC, 7 days
Description: To test for tolerance of the administered compounds, male weaning Sprague-Dawley rats were fed in a single dose of 2.5 or 0.75 g/kg of TMF-12, TMF-10, TMC-10 or TPC-10 in 5% carboxymethyl cellulose (CMC) or CMC alone. […] At completion of the 7 day observation period, necropsies were performed on all animals.

myeloperoxidase (MPO) = test: Myeloperoxidase (MPO) activity in ear biopsies, acute TPA mouse ear assay; assay type: in vivo
Description: The anti-inflammatory effect of selected compounds of this invention were compared to those of Triclosan™ and hydrocortisone in a modified […] (TPA) mouse ear inflammation assay. TPA was used as an inflammogen rather than croton oil because TPA gives a well characterized inflammatory response at very low concentrations. […] This model can therefore be used to study the pharmacokinetics, clinical efficacy and adverse side effects of anti-inflammatory agents. To quantitate inflammation, ear punches from treated animals were used to measure increased ear mass (edema) and myeloperoxidase (MPO) activity. For the inhibition studies, ear biopsies were weighed six hours after treatment with TPA and the simultaneous application of the compound of the present invention. All the compounds were diluted in acetone. Following this, the biopsies were frozen and subsequently used to measure inhibition of MPO activity, an estimate of polymorphonuclear (PMN) […] activity in the affected area. Percent inhibition of edema was calculated as [c-t]/c x 100, where c and t are increases in ear weight in control and treated mice, respectively.
As a confirmation of the anti-inflammatory activity and in an attempt to further define the mechanism of inhibition produced by the alkylsulfonylsalicylanilides, MPO activity was measured in representative ear biopsies. The enzyme was extracted from the tissue by using a combination of homogenization in the presence of a detergent, freezing and thawing, and sonication. The change in absorbance was measured with time using o-dianisidine and H2 O2 as the substrate in an automated plate reader. As shown below, TPA-induced increase in MPO was inhibited in TMF-12 treated ears at a dose approximately 10-fold less than that which inhibited edema.

[2] = tested on: ear weight gain produced by multiple doses of TPA in mice; test: Chronic (multiple dose) TPA mouse ear inflammation assay, ear weight gain; assay type: in vivo, mouse (female CD-1)
Description: The acute skin inflammation model described in Example 1, tests the ability of a compound to prevent inflammation and thus must be applied prophylactically. Most clinical situations, however, are present as chronic inflammatory conditions. […] The effects of the compounds of the present invention and Salifluor on chronically inflamed skin was measured in the mouse ear model that utilizes multiple TPA doses over a 10-day period to produce the inflammatory response.
The assay used female CD-1 mice (7-9 weeks of age). Following a 2-week quarantine, mice were randomly assigned to test groups (5 mice/groups). TPA (10 uL of 0.01 TPA in acetone) was administered to both the inner and outer surface of each ear (2μg/ear) on day 0,2,4,7, and 9 on protocol. On Day 7,8 and 9, two applications of test article were applied to each ear 2 and 4 hours after dosing with TPA. The test articles were administered in 10 uL aliquots to both the inner and outer surface of each ear (20 μl total/dose). […] Hydrocortisone-17-valerate (HCV, 20μg/ear) was employed as a positive control. Mice were sacrificed at Day 10 on protocol and uniform punch biopsies (approximately 8 mm dia.) were taken from each ear. While on protocol, dermal irritation was scored semiquantitatively at Day 1,3,5,8, and 10.
Inhibition of TPA stimulated increased ear weight was used as an initial measure of efficacy for all of the agents tested. One biopsy from each mouse was also quick frozen and stored at -70° C. for later assay of myleoperoxidase, an enzyme associated with infiltrating PMN, or other measure of efficacy. The remaining biopsy from each mouse treated with Trifluorosal or HCV was fixed in formalin and processed for histopathologic evaluation, including measurement of cellular infiltration (PMNs, endothelial cells, macrophages) and epidermal thickness at 20 random sites along the length of the specimen.
Initially, a dose-response curve for multiple doses of TPA to produce mouse ear weight gain was generated in order to determine the concentration of TPA to be employed in the inhibition studies. […] Another major difference between the multiple TPA dose (or chronic assay for inflammation) and the single TPA dose (or acute assay for inflammation) in the mouse ear is sensitivity to Non-steroidal antiinflammatory drugs (NSAIDs) and antihistamines.

CCCCCCCCCCCCS(=O)(=O)c1ccc(O)c(C(=O)Nc2cccc(C(F)(F)F)c2)c1 [TMF-12]
Illness or deaths [1]: No illness or deaths occurred
MPO Activity (myeloperoxidase (MPO); TMF-12 0.8 mg/20 ml): 590.2 D OD/min
MPO Activity (myeloperoxidase (MPO); TMF-12 1.24 mg/20 ml): 327.3 D OD/min
MPO Activity (myeloperoxidase (MPO); TMF-12 8 mg/20 ml): 56.5 D OD/min
MPO Activity (myeloperoxidase (MPO); TMF-12 12.4 mg/20 ml): 54.8 D OD/min
MPO Activity (myeloperoxidase (MPO); TMF-12 80 mg/20 ml): 27.6 D OD/min
MPO Activity (myeloperoxidase (MPO); TMF-12 124 mg/20 ml): 21 D OD/min
Dose inhibiting MPO increase, fold less than dose inhibiting edema (myeloperoxidase (MPO); compared with edema inhibition): approximately 10 fold
Inhibition of ear weight gain ([2]; 500μg/ear, first experiment): 28%
Inhibition of ear weight gain ([2]; 1.25 mg/ear): 37.5%
Inhibition of ear weight gain ([2]; 2.5 mg/ear): 27.3%
Inhibition of ear weight gain ([2]; 5.0 mg/ear (printed 'mc/ear' for Trifluorosal)): 34.4%
Activity in chronic assay (in words) ([2]; 1.25-5 mg/ear, remaining experiments): demonstrated consistent activity
% Inhibition of Ear Weight Gain, Actual ([2]; multiple doses of TPA): 37.3%
% Inhibition of Ear Weight Gain, Relative to Hydrocortisone (HCV) = 100% ([2]; multiple doses of TPA, head prints 1.25 eg/ear): 61.8%
